Reference: EP2758383B1, “AROMATIC AMIDOTHIAZOLES, COSMETIC AND DERMATOLOGICAL PREPARATIONS CONTAINING THEM, AND THEIR USE FOR THE TREATMENT AND PROPHYLAXIS OF UNWANTED PIGMENTATION OF THE SKIN” (priority 2011, dated 2013)

These compounds were tested against T1, humane Tyrosinase (Homo sapiens, UniProt P14679) (assay: Enzyme test: conversion of L-DOPA to L-dopaquinone by human tyrosinase, MBTH detection, absorption at 490 nm). Conditions: Konzentration 10 µg/mL; substrate L-DOPA; read-out: Inhibition (% der Kontrolle).
T1 sequence (P14679 19-529): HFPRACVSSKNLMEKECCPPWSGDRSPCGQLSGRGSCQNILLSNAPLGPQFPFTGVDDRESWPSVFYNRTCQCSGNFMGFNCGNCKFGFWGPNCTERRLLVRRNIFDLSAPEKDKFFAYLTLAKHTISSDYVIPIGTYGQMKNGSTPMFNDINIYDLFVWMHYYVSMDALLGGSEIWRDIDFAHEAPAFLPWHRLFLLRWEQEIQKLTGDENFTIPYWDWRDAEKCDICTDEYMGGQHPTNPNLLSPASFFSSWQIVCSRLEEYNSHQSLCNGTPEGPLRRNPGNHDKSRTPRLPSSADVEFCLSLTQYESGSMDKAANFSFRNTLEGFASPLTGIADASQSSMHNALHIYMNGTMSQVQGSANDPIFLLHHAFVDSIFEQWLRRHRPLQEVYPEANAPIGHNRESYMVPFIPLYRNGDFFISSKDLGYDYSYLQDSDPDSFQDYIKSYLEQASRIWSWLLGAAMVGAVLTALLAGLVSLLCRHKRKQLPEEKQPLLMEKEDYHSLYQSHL
Assay type: biochemical
Excerpt: Die Wirksamkeit der Thiazole wurde mit einem Enzymtest belegt, in der Umsatz von L-DOPA zu L-Dopachinon durch eine humane Tyrosinase gemessen wurde.

SMILES | inhibition at 10 µg/mL
CC(C)(C)c1ccc(C(=O)Nc2nc(-c3ccc(O)cc3O)cs2)cc1 [4-(tert-butyl)-N-(4-(2,4-dihydroxyphenyl)thiazol-2-yl)benzamid] | 27%
CC(=O)c1ccc(C(=O)Nc2nc(-c3ccc(O)cc3O)cs2)cc1 [4-acetyl-N-(4-(2,4-dihydroxyphenyl)thiazol-2-yl)benzamid] | 92%
N#Cc1ccc(C(=O)Nc2nc(-c3ccc(O)cc3O)cs2)cc1 [4-cyano-N-(4-(2,4-dihydroxyphenyl)thiazol-2-yl)benzamid] | 96%
O=C(Nc1nc(-c2ccc(O)cc2O)cs1)c1ccc(CO)cc1 [N-(4-(2,4-dihydroxyphenyl)thiazol-2-yl)-4-(hydroxymethyl)benzamid] | 99%
O=C(Nc1nc(-c2ccc(O)cc2O)cs1)c1ccc(CO)nc1 [N-(4-(2,4-dihydroxyphenyl)thiazol-2-yl)-6-(hydroxymethyl)nicotinamid] | 98%
O=C(Nc1nc(-c2ccc(O)cc2O)cs1)c1ccccc1 [N-(4-(2,4-dihydroxyphenyl)thiazol-2-yl)benzamid] | 98%

Results, then the compound that gave them:

inhibition at 10 µg/mL | SMILES
92% | O=C(Nc1nc(-c2ccc(O)cc2O)cs1)c1ccc2c(c1)OCO2 [N-(4-(2,4-dihydroxyphenyl)thiazol-2-yl)benzo[d][1,3]dioxole-5-carboxamide]
82% | O=C(Nc1nc(-c2ccc(O)cc2O)cs1)c1ccccn1 [N-(4-(2,4-dihydroxyphenyl)thiazol-2-yl)picolinamid]
16% | c1ccc(Nc2nc(-c3ccncc3)cs2)nc1 [N-(pyridin-2-yl)-4-(pyridin-4-yl)thiazol-2-amin, reference compound]
13% | C=CCN(C1=NC(C)(C)C(=C)S1)c1ccc(C)cc1C [N-allyl-N-(2,4-dimethylphenyl)-4,4-dimethyl-5-methylene-4,5-dihydrothiazol-2-amin, reference compound]
13% | CN(c1ccccc1)c1nc(-c2ccncc2)cs1 [N-methyl-N-phenyl-4-(pyridin-4-yl)thiazol-2-amin, reference compound]

Same assay, conditions: read-out: Inhibition (% der Kontrolle)

SMILES | inhibition at 10 µg/mL
CC(C)(O)c1ccc(C(=O)Nc2nc(-c3ccc(O)cc3O)cs2)cc1 [N-(4-(2,4-dihydroxyphenyl)thiazol-2-yl)-4-(2-hydroxypropan-2-yl)benzamid] | 96%
